The values that follow come from publication PMC9973015 (mBio, 2023).

For data set [1], the system named is SARS-CoV-2 WT-GHB-03021. The data set can be described thus: microbe, parasite or virus in culture. Type of data set: cell-based. The conditions noted are these: Severe acute respiratory syndrome coronavirus 2, Vero C1008, read-out: SARS-CoV-2 WT-GHB-03021 EC50.
Data set [2] has as its target human cathepsin L (Homo sapiens, UniProt P07711). The data set can be described thus: biochemical.
Data set [3] in a line: in vitro. The conditions noted are these: African green monkey.
Data set [4] relates to SARS-CoV-2 WT-USA-WA1. The data set can be described thus: microbe, parasite or virus in culture. It is filed as cell-based. Particulars: Severe acute respiratory syndrome coronavirus 2, Vero C1008, read-out: SARS-CoV-2 WT-USA-WA1 EC50.
Data set [5] has as its system VeroE6 cells.

Sequence of human cathepsin L (P07711 114-333): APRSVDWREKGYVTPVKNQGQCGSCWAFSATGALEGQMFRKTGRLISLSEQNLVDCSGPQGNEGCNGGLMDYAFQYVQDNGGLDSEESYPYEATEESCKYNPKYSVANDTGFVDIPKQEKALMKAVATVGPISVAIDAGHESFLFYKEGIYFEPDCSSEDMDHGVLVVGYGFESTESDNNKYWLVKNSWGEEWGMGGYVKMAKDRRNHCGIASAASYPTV

The EC50 is the concentration giving half of the maximal effect. For orientation: IC50 means the midpoint of a concentration-inhibition curve. On to `COc1cccc2[nH]c(C(=O)N[C@@H](CC(C)C)C(=O)N[C@@H](C[C@@H]3CCNC3=O)C(=O)CO)cc12` [PF-00835231], for which, in data set [1], the EC50 amounted to 190 nM. The same compound displayed an IC50 in data set [2] of 0.13 µM. The CC50 in data set [3] is over 10 µM.

In the case of `COc1cccc2[nH]c(C(=O)N3C[C@@H]4CCC[C@@H]4[C@H]3C(=O)N[C@@H](C[C@@H]3CCCNC3=O)C(=O)CO)cc12` [ALG-097161, (1S,3aR,6aS)-N-((S)-4-Hydroxy-3-oxo-1-((S)-2-oxopiperidin-3-yl)butan-2-yl)-2-(4-methoxy-1H-indole-2-carbonyl)octahydrocyclopenta[c]pyrrole-1-carboxamide], the EC50 worked out at 600 nM in data set [4] and 590 nM in data set [1]. This compound also returned a 50% inhibitory concentration (IC50) in data set [2] of over 10 µM. This compound also showed a CC50 in data set [3] of over 10 µM. The “effect on the viability of uninfected host cells” value in data set [5] is on record as “no effect”.

Regarding `CC(C)(C)[C@H](NC(=O)C(F)(F)F)C(=O)N1C[C@H]2[C@@H]([C@H]1C(=O)N[C@H](C#N)C[C@@H]1CCNC1=O)C2(C)C` [Nirmatrelvir, nirmatrelvir], the figures for the concentration for a half-maximal effect (EC50) in data set [4] and in data set [1] were 110 nM and 120 nM, respectively. This compound registered a CC50 in data set [3] of over 10 µM.

For the compound `Cn1cnc(Cn2c(=O)[nH]/c(=N\c3cc4cn(C)nc4cc3Cl)n(Cc3cc(F)c(F)cc3F)c2=O)n1` [Ensitrelvir, ensitrelvir], the EC50 in data set [4] was 210 nM. Moreover, in data set [2], the 50% inhibitory concentration (IC50) was over 10 µM.
